{"source": "patent US20230140798A1", "about": "“SYNTHETIC PEPTIDES DIRECTED AGAINST THE METABOTROPIC GLUTAMATE RECEPTOR 5” (Lactocore, Inc., priority 2020, published 2023)", "format_in_all_cases": "in vivo", "key": {"[1]": {"system": "zebrafish (Danio rerio)", "experiment": "Novel Tank (NT) test", "protocol": "(§1) The tested substances were injected into the zebrafish intraperitoneally using an insulin syringe (0.5 ml, 30 g) 10 minutes before the test (15 min before for ketamine only, according to the literature data). The saline solution (0.9% NaCl) was used as a solvent. Anesthesia and immobilization of the animals were achieved by placing them in water at a temperature of 10° C. Control group fish received intraperitoneal injections of an equivalent volume of solvent, also after going through a pre-cooling procedure.\nA base, back, and side walls of the aquarium were made of matte black plastic; the front panel (shorter wall) was made of transparent Plexiglas.\n(§2) The Novel Tank (NT) test was performed as previously described (Maximino et al. (2013). Behavioral and neurochemical changes in the zebrafish leopard strain. G2B. 12(5): 576-582). A video recording (background shooting) was started 20-30 seconds before the zebrafish were placed in the test aquarium. The experimental zebrafish was placed in the tank using a net. The recording was being conducted for 5 minutes. The test was carried out using EthoVision XT software package (Noldus, Wageningen, Netherlands). The software registered the distance covered by the animal, its speed, the number of visits to the three conventional zones of the aquarium: “bottom,” “center,” and […] (lower, middle, and upper thirds of the aquarium, respectively), the time spent in these zones, and the latency of a visit to the middle and to the surface of the aquarium."}, "[2]": {"system": "zebrafish (Danio rerio)", "experiment": "Overall behavioral effect in zebrafish (NT and LDB tests)", "protocol": "as §1, §2\n(§3) The light/dark box (LDB) test was performed as previously described (Maximino et al. (2011). Pharmacological analysis of zebrafish (Danio rerio) scototaxis. Prog. Neuro-Psychopharmacol. Biol. Psychiatry. 35(2): 624-631). The zebrafish was placed in a light compartment of an LDB using a net, the camera was switched on simultaneously, and the behavior of the zebrafish was recorded for 5 minutes. The video was processed using RealTimer (OpenScience). During the processing of records, the residence time and the number of visits to the light and dark compartments of the test setup were recorded, as well as the latent period of visiting both compartments."}, "[3]": {"system": "zebrafish (Danio rerio)", "experiment": "Light/Dark Box (LDB) test", "protocol": "as §1\nThe setup for the Light/Dark preference test consisted of three main parts: a launch compartment, a light compartment made of white plastic, and a dark compartment made of black plastic. The bright lighting in these tests was provided by a lamp on a stand (LED lamp PL, 11 W, light flux≈600 Lm, about 500 Lx directly above the water surface), which was attached to the upper part of the aquarium.\nas §3"}, "[4]": {"system": "BALB/C mice", "experiment": "Open Field test, mice", "excerpt": "Eighty male BALB/C mice were used as subjects in this example. Body weight of each specimen at the beginning of the experiment was between about 18 grams and about 20 grams. All animals were free from species-specific pathogens (specific pathogen free (SPF) status according to the Federation of European Laboratory Animal Science Associations (FELASA) list, 2014). The animals were kept in conditions of free access to water and food. The room was air-conditioned (exchange rate not less than 15 r/h) with a 12 h:12 h light-dark cycle (lights on at 09:00 am), air temperature 20-24°±2° C. (possible fluctuations of the limits no more than 2° C. per day), 30-70% humidity. For the study, the mice were separated into six different groups and the tested substances were administered to the groups as shown in Table 1. Drugs were daily prepared in fresh saline, according to the dosage. For intranasal administration (i.n.), a volume of 20 μl was used, for intraperitoneal (i.p.)—200 μl.\n(§4) After an adaptation period, the test substance was intraperitoneally injected into mice. Behavioral parameters were measured in 30 minutes after injection. No more than one test was performed per day. The tests were administered as follows: day 1—the Open field test, day 8—the Elevated plus maze test, days 15-16—the Porsolt Forced Swim (two-day modification) test.\nThe test is an arena with a diameter of 63 cm, illuminated by bright light (500 Lx). Recorded parameters: total distance traveled (in cm), time spent moving (at a speed of more than five cm/s), time spent immobile (at a speed of less than 0.2 cm/s), average and maximum velocity, the number of episodes of motor activity and freezing. The same set of parameters, as well as the latent period and the time spent are recorded for the central sector. Defecation, rears (setting the animal on its hind legs) are evaluated visually. The test is designed to assess the level of motor and exploratory activity."}, "[5]": {"system": "BALB/C mice", "experiment": "Porsolt Forced Swim test (two-day modification), mice", "protocol": "as §4\nAs part of this modification, two tests were carried out within two days. The installation is a transparent cylinder, 30 cm high, 10 cm in diameter and filled with water (water temperature 21° C.-23° C.) to a mark at a height of 25 cm. On the first day, each animal was dropped into the cylinder for 10 minutes. Behavioral parameters were not recorded. The animals are dropped into the cylinder for ten minutes again on the second day. The duration of active (vigorous movements with all paws) and passive (weak strokes with hind legs) swimming, as well as immobility (immobilization) (Porsolt et al. (1977). Behavioral despair in mice: a primary screening test for antidepressants. Arch Int Pharmacodyn Ther, 229(2), 327-336) are recorded. After each test the mice are placed in a heated cage until dry. The behavior indicators in this test are processed using the Real Timer Program developed by NPK “OpenScience” LLC, Russia. The sequence of events and their duration were recorded as well as basic statistical data processing was conducted."}, "[6]": {"system": "BALB/C mice", "experiment": "Elevated Plus Maze test, mice", "settings": "for behavior in EPM: 1 mg/kg i.p.", "protocol": "as §4\nThe test consists of two closed and two open arms located opposite each other (arm length 30 cm). The height of the sides of the closed arms is 15 cm. The entire installation is raised 70 cm above the floor. Open arms have a bright uniform illumination of 400 lux, closed −30-40 lux. The animal is placed in the center of the maze, with its head facing an open arm. Within five minutes, the Noldus EthoVision XT program (for behavior tracking) automatically records the following behavior parameters: total distance traveled (in cm), time spent moving (at a speed of more than five cm/s), time spent immobile (at a speed of less than 0.2 cm/s), average and maximum velocity, the number of episodes of mobility, and freezing. The same set of parameters, as well as the latent period and the time spent, are recorded for the central sector, the open and closed arms separately."}, "[7]": {"settings": "10 mg/kg i.p., 30 minutes after injection"}}, "data": [{"compound": "CNC1(c2ccccc2Cl)CCCCC1=O", "note": "(stereo not drawn) [ketamine, reference compound]", "values": [{"measurement": "distance travelled", "setting": "[1]; 20 mg/kg i.p.", "value": "tendency towards increased distance travelled"}, {"measurement": "latency to the top of the NT", "setting": "[1]; 20 mg/kg i.p.", "value": "did not alter"}, {"measurement": "time spent at the top of the tank", "setting": "[1]; 20 mg/kg i.p.", "value": "significant increase"}, {"measurement": "time spent in the middle+top of the aquarium", "setting": "[1]; 20 mg/kg i.p.", "value": "significant increase"}, {"measurement": "velocity", "setting": "[1]; 20 mg/kg i.p.", "value": "increased velocity"}, {"measurement": "overall behavioral effect in Danio rerio", "setting": "[2]; 20 mg/kg i.p.", "value": "anxiolytic-like responses"}, {"measurement": "behavior in LDB test", "setting": "[3]; 20 mg/kg i.p.", "value": "only trends towards significant differences"}]}, {"compound": "AYFE: tetrapeptide chosen as a negative control [reference compound]", "values": [{"measurement": "time spent in the center", "setting": "[4]; 1 mg/kg i.p., 30 minutes after injection", "value": "59.96±22.4"}, {"measurement": "time spent active swimming", "setting": "[5]; 1 mg/kg i.p.", "value": "increased"}, {"measurement": "time spent immobile", "setting": "[5]; 1 mg/kg i.p.", "value": "decreased"}, {"measurement": "behavior in NT test", "setting": "[1]; 1 mg/kg i.p.", "value": "did not alter the behavior"}, {"measurement": "distance travelled (locomotor activity)", "setting": "[1]; 10 mg/kg i.p.", "value": "attenuation of locomotor activity"}, {"measurement": "behavior in EPM", "setting": "[6]", "value": "didn't affect the behavior"}, {"measurement": "overall behavioral effect in Danio rerio", "setting": "[2]; 1 mg/kg i.p.", "value": "did not show behavioral effects"}, {"measurement": "overall behavioral effect in Danio rerio", "setting": "[2]; 10 mg/kg i.p.", "value": "produced sedation"}, {"measurement": "behavior in LDB test", "setting": "[3]; 1 mg/kg i.p.", "value": "did not alter the behavior"}, {"measurement": "behavior in LDB test", "setting": "[3]; 10 mg/kg i.p.", "value": "did not differ from control values"}]}, {"compound": "AGAS: tetrapeptide AGAS, best combinatorial tetrapeptide according to the score values", "values": [{"measurement": "number of center entries", "setting": "[4]; [7]", "value": "19.3±3"}, {"measurement": "behavior in FST", "setting": "[5]; 10 mg/kg i.p.", "value": "did not affect the behavior"}, {"measurement": "behavior in NT test", "setting": "[1]; 1 mg/kg i.p.", "value": "didn't show any prominent effects"}, {"measurement": "behavior in NT test", "setting": "[1]; 5 mg/kg i.p.", "value": "didn't show any prominent effects"}, {"measurement": "velocity", "setting": "[1]; 10 mg/kg i.p.", "value": "greater velocity"}, {"measurement": "time spent at the top of the tank", "setting": "[1]; 20 mg/kg i.p.", "value": "decreased time spent at the top of the aquarium"}, {"measurement": "velocity", "setting": "[1]; 20 mg/kg i.p.", "value": "trend towards significant reduction of velocity"}, {"measurement": "freezing time", "setting": "[6]; 10 mg/kg i.p.", "value": "38.7 ± 9.6", "unit": "s"}, {"measurement": "number of rears on the closed arms", "setting": "[6]; 10 mg/kg i.p.", "value": "10.2±2.9"}, {"measurement": "distance travelled", "setting": "[6]; [7]", "value": "973±78.7", "unit": "cm"}, {"measurement": "overall behavioral effect in Danio rerio", "setting": "[2]; 1 mg/kg i.p.", "value": "did not affect the behavior"}, {"measurement": "overall behavioral effect in Danio rerio", "setting": "[2]; 5 mg/kg i.p.", "value": "did not affect the behavior"}, {"measurement": "overall behavioral effect in Danio rerio", "setting": "[2]; 10 mg/kg i.p.", "value": "prominent anxiolytic-like activity"}, {"measurement": "overall behavioral effect in Danio rerio", "setting": "[2]; 20 mg/kg i.p.", "value": "anxiogenic-like or sedative effect"}, {"measurement": "behavior in LDB test", "setting": "[3]; 1 mg/kg i.p.", "value": "didn't show any prominent effects"}, {"measurement": "behavior in LDB test", "setting": "[3]; 5 mg/kg i.p.", "value": "didn't show any prominent effects"}, {"measurement": "latency to enter the light compartment", "setting": "[3]; 10 mg/kg i.p.", "value": "decreased latency to enter the light compartment"}, {"measurement": "number of transitions between compartments of LDB", "setting": "[3]; 10 mg/kg i.p.", "value": "increased number of transitions between compartments"}, {"measurement": "behavior in LDB test", "setting": "[3]; 20 mg/kg i.p.", "value": "no differences between experimental and control groups"}]}, {"compound": "DSGH: combinatorial tetrapeptide with the best occurrence and the LOGO analysis", "values": [{"measurement": "behavioral parameters in Open Field test", "setting": "[4]; 1 mg/kg i.p.", "value": "did not cause any changes of the behavioral parameters"}, {"measurement": "behavioral parameters in FST", "setting": "[5]; 1 mg/kg i.p.", "value": "did not cause any changes of the behavioral parameters"}, {"measurement": "behavior in NT test", "setting": "[1]; 0.5 mg/kg i.p.", "value": "did not produced any behavioral effects"}, {"measurement": "behavior in NT test", "setting": "[1]; 10 mg/kg i.p.", "value": "did not affect the behavioral parameters"}, {"measurement": "behavior in EPM", "setting": "[6]", "value": "did not cause any changes of the behavioral parameters"}, {"measurement": "overall behavioral effect in Danio rerio", "setting": "[2]; 0.5 mg/kg i.p.", "value": "anxiogenic-like effect"}, {"measurement": "overall behavioral effect in Danio rerio", "setting": "[2]; 1 mg/kg i.p.", "value": "potent anxiolytic-like effect"}, {"measurement": "overall behavioral effect in Danio rerio", "setting": "[2]; 10 mg/kg i.p.", "value": "failed to produce any behavioral changes"}, {"measurement": "number of transitions to light", "setting": "[3]; 0.5 mg/kg i.p.", "value": "decreased number of transitions to light"}, {"measurement": "time spent in the light compartment", "setting": "[3]; 0.5 mg/kg i.p., trend p<0.1", "value": "decreased time spent in the light compartment"}, {"measurement": "time spent in the light compartment", "setting": "[3]; 1 mg/kg i.p.", "value": "trend towards increased time spent in the light compartment"}, {"measurement": "latency to enter the light", "setting": "[3]; 1 mg/kg i.p., trend p<0.10", "value": "decreased latency to enter the light"}, {"measurement": "behavior in LDB test", "setting": "[3]; 10 mg/kg i.p.", "value": "did not affect the behavioral parameters"}]}, {"compound": "COCCCC/C(=N\\OCCN)c1ccc(C(F)(F)F)cc1", "note": "[FA, Fluvoxamine]", "values": [{"measurement": "time of active swimming", "setting": "[5]; 20 mg/kg i.p.", "value": "103.5 ± 15.1", "unit": "s"}, {"measurement": "time spent immobile", "setting": "[5]; 20 mg/kg i.p.", "value": "229 ± 19.8", "unit": "s"}]}]}
